Results taken from patent publication US11299453B2 (Universität zu Köln, priority 2017, dated 2022).
Where two headings read alike, the source gives them in different places.

Legend:
[1] = system: murine and human PSCs; assay: Dose response assays, statements over murine and human PSCs; assay type: cell-based; conditions: for IC50: iPSC, 48 h, read-out: IC50 values, range over murine iPSC line, two murine ESC lines and human iPSC line
Protocol: (§1) Serial dilutions of DMSO stock solutions of PluriSIn #1 (Sigma-Aldrich, catalog number SML0682) or one of small molecules SM1-SM10, were prepared from 20 mM stock solutions with cell culture medium. Murine PSCs were dissociated with 0.05% trypsin-EDTA, seeded on 0.1% gelatin-coated 96-well plates with a density of 5000 cells/well and cultured in maintenance medium supplemented with 1000 U/ml of mLIF. After 1 day, cells were incubated with 40 μM PluriSIn #1 and derivatives for 72 h or with 0.01-25 μM SMs for 48 h, respectively. For treatment of corresponding PSC-derived CMs with SMs, puromycin-selected miPSC-CMs from day 14 of differentiation were dissociated with 0.25% trypsin-EDTA as described above and plated on 96-well plates (5×10^4 cells/well) which were pre-coated with 5 μg/ml fibronectin (PromoCell, Heidelberg, Germany). After culturing miPSC-CMs with 8 μg/ml puromycin for 2 more days, they were incubated in differentiation medium supplemented with 0.1-100 μM of SMs for 48-72 h. Following small molecule treatment, cell viability was determined with PrestoBlue cell viability reagent (Life Technologies). To this end, cells were washed with PBS (with calcium and magnesium, Life Technologies) and incubated with PrestoBlue reagent diluted in cell culture medium for 40 min at 37° C.
(§2) Fluorescence intensities correlating with the number of viable cells in the wells were measured in black flat-bottom 96-well plates (Greiner Bio-One, Kremsmünster, Austria) with a GeniosPro microplate reader (Tecan, Männedorf, Schweiz).
IC50 values were determined by regression analysis of dose-response curves upon logarithmic transformation. Microscopic images of PSCs were taken with a Zeiss Axiovert 100 inverted microscope and GFP images of CMs were captured with a Zeiss Axiovert 200M fluorescence microscope (both Carl Zeiss, Oberkochen, Germany) and analyzed with Zeiss Axiovision 4.5 software (Carl Zeiss).
In order to quantify compound cytotoxicity, dose response assays were performed by treating PSCs with compound concentrations between nontoxic 0.01 μM and PSC-eliminating 10 μM for 48 h. Murine iPSCs αPIG-AT25, embryonic stem cell lines αPIG44-D3 and R1, and human induced pluripotent stem cell (hiPSC) line NP0014-C6 were used. Cell culture and dose response assays were performed as described above.

[2] = Cell viability (PrestoBlue) of miPSC-derived cardiomyocytes; assay type: cell-based, murine; conditions: mouse, αPIG-AT25 miPSC-derived cardiomyocytes (puromycin-selected), 10 μM, 72 h of exposure
Protocol: The differentiation of transgenic mPSCs was initiated in mass cultures as briefly described below. One million cells were transferred per non-adhering 10 cm dish with 14 ml differentiation medium composed of Iscove's Modified Dulbecco's Medium (IMDM) with GlutaMAX (Life Technologies) supplemented with 20% FBS, 1×NEAA and 100 μM β-ME. Embryoid bodies (EBs) from day 2 of differentiation were transferred in a 250 ml spinner flask (CELLSPIN 250, Integra Biosciences, Fernwald, Germany) with a density of 3×10^4 EBs per 200 ml of differentiation medium. On the first 2 days of differentiation medium was supplemented with 50 μg/ml L-ascorbic acid phosphate (AA, Wako pure chemicals industry, Japan) in order to promote the development of cardiac cells. For the selection of GFP-expressing CMs, 50 ml of the medium was exchanged with fresh differentiation medium and 8 μg/ml puromycin (Life Technologies) were supplemented on day 9 of differentiation. Two days later, the cardiac clusters were transferred on non-adhering 10 cm dishes with fresh differentiation medium containing 8 μg/ml puromycin. In the further course of differentiation medium was exchanged every 2-3 days. If not otherwise specified, the purification of GFP-positive CMs with puromycin was continued until day 16 of differentiation. For single cell analyses and transfer of PSC-derived CMs on cell culture plates, cardiac clusters were dissociated with 0.25% trypsin-EDTA (Life Technologies) supplemented with 50 U/ml DNase I (AppliChem, Darmstadt, Germany) for 20-30 min at 37° C. The mPSC-derived CMs were filtered through a polyamide membrane with […] pore size (Sefar, Heiden, Switzerland). Cell numbers were determined with a Neubauer hemocytometer and cells were stored on ice until further use.
as §1, §2
The selectivity of compounds was investigated by comparing their cytotoxicity against undifferentiated iPSCs and iPSC-derived CMs. Murine iPSCs αPIG-AT25 were incubated for 48 h with compounds SM1, SM2, SM4, SM5, SM6 and SM8 in concentrations of 0.01 to 10 μM. Cell culture and cardiac differentiation were performed as described above. Experiments were run at least in quadruplicate. The cell viability was determined using PrestoBlue cell viability reagent.
The viability of salicylic diamine-treated CMs was confirmed by 72 h of exposure to concentrations of 0.01 μM, 0.1 μM, 1 μM, 10 μM and 25 μM of compounds SM1, SM2, SM4, SM5, SM6 and SM8.

[3] = system: miPSC-CM monolayers; assay: Cardiomyocyte contraction rate by video imaging; assay type: cell-based, murine; conditions: 10 μM, 48 h treatment
Protocol: The effect of compound treatment on CM beating frequency was determined by video imaging of iPSC-CM monolayers after exposure to SMs. On day 14 of differentiation puromycin-selected miPSC-CMs were plated on a fibronectin-coated multi-well cell culture plate (10^5 cells/cm^2). […] Following SM treatment, cells were washed twice with PBS (with calcium and magnesium) and cultured for 72 h in fresh differentiation medium. […] The number of beats per each video sequence was quantified and the contraction rate was calculated in beats per minute.
Further, the effect of compound treatment on the CM beating frequency was determined by video imaging of iPSC-CM monolayers after exposure to compounds as described above.

[4] = system: αPIG-AT25 miPSC-derived cardiomyocytes; assay: Cell viability (PrestoBlue) of miPSC-derived cardiomyocytes; assay type: cell-based, murine; conditions: 48 h treatment
[5] = read-out: decrease of cardiomyocyte viability, in average over SM1, SM4 and SM8
[6] = read-out: decrease of cardiomyocyte viability

Compound	IC50 [1] [nM]	cytotoxicity at 72 h, 10 μM [2, 5] [%]	decrease of contraction rate of CMs compared to DMSO-treated control [3] [%]	microscopic analysis of CM monolayers [4]	cytotoxicity at 72 h, 10 μM [2, 6] [%]	effect on pluripotent stem cells ([1]; 10 μM, two day-treatment)
Oc1c(CNC2CCCC[C@@H]2NCc2cccc(-c3ccccc3)c2O)cccc1-c1ccccc1 (stereo partly drawn) [SM1, (1S,2S)-N,N′-di[(2-hydroxy-3-phenyl)-benzyl]-1,2-diaminocyclo-hexane]	100 to 5000	79.8 ± 14.7	–	–	–	–
Oc1c(/C=N/[C@H]2CCCC[C@@H]2NCc2cccc(-c3ccccc3)c2O)cccc1-c1ccccc1 [SM2, (1S,2S)-N-[(2-hydroxy-3-phenyl)-benzyl]-N′-[(2-hydroxy-3-phenyl)-benzylidene]-1,2-diaminocyclohexane]	100 to 5000	–	61.02±2.67	intact CM monolayers	18.5 ± 7.06	–
Oc1c(CN[C@@H]2CCCC[C@H]2NCc2cccc(-c3ccccc3)c2O)cccc1-c1ccccc1 [SM4, (1R,2R)-N,N′-di[(2-hydroxy-3-phenyl)-benzyl]-1,2-diaminocyclohexane]	100 to 5000	79.8 ± 14.7	–	–	–	–
Oc1c(/C=N/[C@@H]2CCCC[C@H]2NCc2cccc(-c3ccccc3)c2O)cccc1-c1ccccc1 [SM5, (1R,2R)-N-[(2-hydroxy-3-phenyl)-benzyl]-N′-[(2-hydroxy-3-phenyl)-benzylidene]-1,2-diaminocyclohexane]	100 to 5000	–	–	–	14.1 ± 13.8	–
Oc1ccccc1CN[C@@H]1CCCC[C@H]1NCc1ccccc1O [SM6, (1R,2R)-N,N′-di(2-hydroxybenzyl)-1,2-diaminocyclohexane]	100 to 5000	–	24.26±15.71	intact CM monolayers	11 ± 13.2	elimination of pluripotent stem cells
Oc1c(CNC2CCCC[C@@H]2NCc2cccc(-c3ccccc3)c2O)cccc1-c1ccccc1 (stereo partly drawn) [SM8, (1S,2R)-N,N′-di[(2-hydroxy-3-phenyl)-benzyl]-1,2-diaminocyclohexane]	–	–	71.37±26.91	intact CM monolayers	–	–
